From paper PMC6504873, “High-throughput screening of the Plasmodium falciparum cGMP-dependent protein kinase identified a thiazole scaffold which kills erythrocytic and sexual stage parasites” (Scientific Reports, 2019) come the findings set out here.

Data set [1] deals with T1, TQ PfPKG (PfPKG_T618Q) (Plasmodium falciparum, UniProt Q8I719, T618Q).
T1 construct: His6 (N); host or cells: E. coli BL21
The data set can be described thus: Kinase Glo enzymatic assay, gatekeeper mutant TQ PfPKG. The format is biochemical, P. falciparum. As for the experimental part:
Taking advantage of the availability of more than 3,000 thiazole derivatives among the GSK compound collection, cluster 3 was thoroughly investigated for potent and selective inhibitors of WT PfPKG. […] We explored the binding mode by also testing compounds on the gatekeeper mutant enzyme TQ PfPKG. […] These two time points were chosen to give an indication of the speed of kill of the compounds. […] A preliminary safety test was performed on human AuroraB and LCK kinases which often underpin toxicity issues. […] Further assays for compound characterization included determination of solubility and cytotoxicity (HepG2 inhibition). Thiazoles have been previously identified as human BRaf inhibitors that are used to treat melanoma.
Protein production was outsourced to the Division of Signal Transduction Therapy, University of Dundee. Briefly, the pTRChis expression vectors (Invitrogen) containing an N-terminally His6-tagged PfPKG wildtype and T618Q were used to transform BL21 cells (protocol adapted from[23]). The cells were grown at 37 °C until the OD600 was 0.4–0.6 then the temperature was reduced to 15 °C and the cells were induced with 250 µM IPTG and grown for a further 16–18 hours before harvesting. The His6-PfPKG was purified on Cobalt agarose followed by gel filtration and the protein was dialysed into 25 mM Hepes pH 7.5, 0.1 mM EGTA, 150 mM NaCl, 50% glycerol and 2 mM DTT.
Initial optimization of the PKG assay was performed manually in 384-well plates and analysed with GraFit 7. The buffer for all assays was 25 mM HEPES pH 7.3 (GIBCO), 10 mM MgCl2 (Sigma), 2 mM DTT (Sigma), 0.01 mM cGMP (Sigma), 0.1 mg/ml BSA (Ambion). Enzymatic activity was tested using a luminescence-based kit (Promega KinaseGlo). Addition of the first reagent depletes the unused ATP and addition of the second reagent converts ADP (product of the kinase reaction) to ATP, which is then measured through a luciferin/luciferase reaction. The amount of luminescence is directly proportional to ATP turnover by the kinase. The kit was chosen because it can be miniaturized to small volumes (i.e. 4 µl) in 1536-well plates, for use in HTS.
We used PKA peptide substrate (SCP0212, Sigma-Aldrich) for WT and TQ PfPKG, dissolved in milliQ water at a final concentration of 5 mM, and Long S6 peptide substrate (produced at the University of Dundee, sequence […]) for HuPKGIα, dissolved in water at a final concentration of 30 mM.
We calculated the Michaelis-Menten (Km) constant for ATP and peptide substrate (PKA or Long S6) for all enzymes using GraphPad Prism (Supplementary Figs 2 and 3 and Supplementary Table 3). In order to identify different types of PKG inhibitors, including ATP competitive or non-competitive inhibitors, as well as inhibitors that bind to the peptide substrate pocket, we performed all assays using ATP and peptide substrate at a concentration equal to the Km. We also determined enzyme activity by calculating ATP turnover (Kcat) over the Km (Supplementary Table 3). The Kcat was calculated as (Vmax*slope)/[E] where Vmax is the maximum velocity and [E] is the concentration of the enzyme.
The plates containing the compounds were prepared at GSK in Upper Providence or Stevenage. Compounds were tested at a single final concentration of 10 µM or in a dose response with a range of concentrations starting from 100 μM to 1.6 nM (1 in 3 serial dilutions). Compounds were dispensed in the plates at the required concentration in a 40 nl volume. All plates (1536-well white Greiner) contained 40 nl of DMSO in lanes 11 and 12 (control 1, 100% enzyme activity) and were empty in lanes 35 and 36 (control 2, 0% enzyme activity). The plates were removed from −20 °C 1 hour before starting the assay. Using a Multidrop Combi dispenser (Thermo Scientific), 2 µl of the buffer containing ATP and the substrate were added to all wells then 2 µl of buffer only were added to column 35 and 36. […]

Data set [2] can be described thus: ChromlogD (lipophilicity).
Data set [3] in a line: AM_Perm (artificial membrane permeability). The data set is classed as in vitro ADME.
Data set [4] concerns the target AuroraB (Homo sapiens, UniProt Q96GD4). Put plainly: Preliminary safety test on human AuroraB kinase. The format is biochemical. The protocol: We explored the binding mode by also testing compounds on the gatekeeper mutant enzyme TQ PfPKG. […] A preliminary safety test was performed on human AuroraB and LCK kinases which often underpin toxicity issues. […] Further assays for compound characterization included determination of solubility and cytotoxicity (HepG2 inhibition).

Data set [5] in a line: PFI. The format is physicochemical. The protocol:
Dose response assays were performed in duplicate on WT PfPKG, HuPKGIα and a mock assay performed in the absence of enzyme (the counterscreen). Comparison of the PfPKG and HuPKGIα IC50 values gave information on selectivity and the counterscreen identified luminescent false positive compounds (see Materials and Methods). Cytotoxicity assays were also performed using a human hepatoma cell line (HepG2)[30]. […] This set of compounds was clustered by similarity using a complete-linkage algorithm and a threshold of 0.55[31]. A total of 79 clusters and 54 singletons were obtained.

The target in data set [6] is PI3KD (Homo sapiens, UniProt O00329). Put plainly: Preliminary safety test on human PI3KD kinase. The format is biochemical.
The target of data set [7] is T2, WT PfPKG (Plasmodium falciparum, UniProt Q8I719).
T2 construct: recombinant full length wild type (WT) PfPKG; His6 (N); host or cells: E. coli BL21
Details: species or system P. falciparum. Particulars: for LE: ligand efficiency; for LLE: lipophilic ligand efficiency. The text has this: A scoring system was developed to further prioritize interesting compounds. […] Three points were given to compounds that inhibit HuPKGIα at least 3 orders of magnitude less than WT PfPKG. […] We also considered how well the compounds bind to the target by taking into account two physicochemical properties: ligand efficiency (LE, 1.37 x pIC50/number heavy atoms) is a characterization of a compound’s efficiency on a per-heavy-atom basis[51] and lipophilic ligand efficiency (LLE, pIC50 – clogP) is a parameter used in drug design which links potency and lipophilicity in an attempt to estimate drug-likeness[52]. The ClogP coefficient measures lipophilicity. Values of LE ≥ 0.3 and LLE ≥ 5 are typically accepted as good starting points for optimizations efforts.

Some results are limits rather than exact numbers.

T1 sequence (Q8I719 whole entry T618Q): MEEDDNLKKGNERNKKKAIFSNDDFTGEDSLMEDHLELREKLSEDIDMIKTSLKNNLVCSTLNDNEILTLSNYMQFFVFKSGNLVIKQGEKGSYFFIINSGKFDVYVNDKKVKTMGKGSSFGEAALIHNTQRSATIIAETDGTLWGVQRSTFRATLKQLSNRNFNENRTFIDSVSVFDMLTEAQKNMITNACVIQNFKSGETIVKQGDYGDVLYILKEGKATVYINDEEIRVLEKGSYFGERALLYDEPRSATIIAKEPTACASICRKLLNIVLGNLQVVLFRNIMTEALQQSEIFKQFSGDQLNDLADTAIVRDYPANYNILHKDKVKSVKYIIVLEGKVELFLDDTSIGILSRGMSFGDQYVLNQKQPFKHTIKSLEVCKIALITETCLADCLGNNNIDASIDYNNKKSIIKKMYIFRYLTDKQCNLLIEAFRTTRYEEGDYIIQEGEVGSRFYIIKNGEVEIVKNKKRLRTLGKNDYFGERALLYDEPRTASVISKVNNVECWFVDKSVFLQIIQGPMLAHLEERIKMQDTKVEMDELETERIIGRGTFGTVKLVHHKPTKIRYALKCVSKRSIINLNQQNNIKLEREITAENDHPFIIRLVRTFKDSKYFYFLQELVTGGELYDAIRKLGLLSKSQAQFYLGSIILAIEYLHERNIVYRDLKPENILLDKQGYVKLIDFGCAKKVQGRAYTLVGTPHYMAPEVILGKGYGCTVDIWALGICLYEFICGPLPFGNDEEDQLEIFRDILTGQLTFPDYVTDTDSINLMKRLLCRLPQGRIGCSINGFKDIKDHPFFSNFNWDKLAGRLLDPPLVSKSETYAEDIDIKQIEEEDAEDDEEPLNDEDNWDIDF
T2 sequence (Q8I719 whole entry): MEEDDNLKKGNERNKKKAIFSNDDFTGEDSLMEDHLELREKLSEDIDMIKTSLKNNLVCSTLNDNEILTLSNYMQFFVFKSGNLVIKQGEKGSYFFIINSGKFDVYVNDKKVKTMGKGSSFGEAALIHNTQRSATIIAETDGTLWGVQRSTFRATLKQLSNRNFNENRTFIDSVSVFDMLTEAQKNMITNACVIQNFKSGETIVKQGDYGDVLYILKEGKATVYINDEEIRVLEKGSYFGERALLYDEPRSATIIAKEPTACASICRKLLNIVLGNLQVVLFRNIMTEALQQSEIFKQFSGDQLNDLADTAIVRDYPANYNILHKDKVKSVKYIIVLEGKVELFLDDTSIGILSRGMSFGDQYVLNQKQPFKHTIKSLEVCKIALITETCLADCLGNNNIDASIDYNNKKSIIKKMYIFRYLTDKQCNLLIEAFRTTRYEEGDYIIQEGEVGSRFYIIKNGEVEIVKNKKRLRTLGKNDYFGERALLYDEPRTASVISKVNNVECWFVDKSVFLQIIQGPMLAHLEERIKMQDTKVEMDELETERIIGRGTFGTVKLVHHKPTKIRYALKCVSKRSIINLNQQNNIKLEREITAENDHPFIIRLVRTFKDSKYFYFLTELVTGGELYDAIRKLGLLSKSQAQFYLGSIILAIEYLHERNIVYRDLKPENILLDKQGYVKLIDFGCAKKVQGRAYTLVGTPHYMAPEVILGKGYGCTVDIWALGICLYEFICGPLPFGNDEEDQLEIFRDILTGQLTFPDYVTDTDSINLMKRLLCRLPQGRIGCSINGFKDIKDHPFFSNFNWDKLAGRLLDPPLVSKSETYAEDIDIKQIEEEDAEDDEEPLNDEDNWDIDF
PI3KD, sequence (O00329 whole entry): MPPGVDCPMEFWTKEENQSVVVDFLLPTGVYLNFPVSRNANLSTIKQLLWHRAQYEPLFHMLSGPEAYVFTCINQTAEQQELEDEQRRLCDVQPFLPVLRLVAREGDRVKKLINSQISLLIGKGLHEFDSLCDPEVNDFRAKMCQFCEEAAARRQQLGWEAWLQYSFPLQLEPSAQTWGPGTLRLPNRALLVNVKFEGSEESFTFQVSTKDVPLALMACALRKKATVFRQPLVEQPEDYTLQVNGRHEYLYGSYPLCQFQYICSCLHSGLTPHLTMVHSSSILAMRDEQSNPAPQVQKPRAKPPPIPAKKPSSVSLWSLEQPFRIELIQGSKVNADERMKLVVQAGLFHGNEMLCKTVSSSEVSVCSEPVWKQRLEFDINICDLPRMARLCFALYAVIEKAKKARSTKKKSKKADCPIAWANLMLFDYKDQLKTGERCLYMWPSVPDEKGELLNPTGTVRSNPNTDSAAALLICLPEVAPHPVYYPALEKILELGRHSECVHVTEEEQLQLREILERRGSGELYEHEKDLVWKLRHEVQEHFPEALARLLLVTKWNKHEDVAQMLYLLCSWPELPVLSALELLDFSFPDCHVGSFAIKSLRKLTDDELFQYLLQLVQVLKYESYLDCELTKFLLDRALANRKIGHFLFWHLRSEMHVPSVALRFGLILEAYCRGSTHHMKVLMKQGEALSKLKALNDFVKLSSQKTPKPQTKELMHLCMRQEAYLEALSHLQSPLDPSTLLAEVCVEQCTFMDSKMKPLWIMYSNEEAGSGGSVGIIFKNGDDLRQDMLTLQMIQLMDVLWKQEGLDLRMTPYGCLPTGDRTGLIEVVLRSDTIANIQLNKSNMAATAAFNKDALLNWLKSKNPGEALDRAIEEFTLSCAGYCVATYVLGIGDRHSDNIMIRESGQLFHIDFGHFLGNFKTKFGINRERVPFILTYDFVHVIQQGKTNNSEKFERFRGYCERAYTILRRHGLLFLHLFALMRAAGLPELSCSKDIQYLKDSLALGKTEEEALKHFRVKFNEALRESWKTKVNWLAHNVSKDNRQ
PI3KD, sequence (P27986 whole entry partner): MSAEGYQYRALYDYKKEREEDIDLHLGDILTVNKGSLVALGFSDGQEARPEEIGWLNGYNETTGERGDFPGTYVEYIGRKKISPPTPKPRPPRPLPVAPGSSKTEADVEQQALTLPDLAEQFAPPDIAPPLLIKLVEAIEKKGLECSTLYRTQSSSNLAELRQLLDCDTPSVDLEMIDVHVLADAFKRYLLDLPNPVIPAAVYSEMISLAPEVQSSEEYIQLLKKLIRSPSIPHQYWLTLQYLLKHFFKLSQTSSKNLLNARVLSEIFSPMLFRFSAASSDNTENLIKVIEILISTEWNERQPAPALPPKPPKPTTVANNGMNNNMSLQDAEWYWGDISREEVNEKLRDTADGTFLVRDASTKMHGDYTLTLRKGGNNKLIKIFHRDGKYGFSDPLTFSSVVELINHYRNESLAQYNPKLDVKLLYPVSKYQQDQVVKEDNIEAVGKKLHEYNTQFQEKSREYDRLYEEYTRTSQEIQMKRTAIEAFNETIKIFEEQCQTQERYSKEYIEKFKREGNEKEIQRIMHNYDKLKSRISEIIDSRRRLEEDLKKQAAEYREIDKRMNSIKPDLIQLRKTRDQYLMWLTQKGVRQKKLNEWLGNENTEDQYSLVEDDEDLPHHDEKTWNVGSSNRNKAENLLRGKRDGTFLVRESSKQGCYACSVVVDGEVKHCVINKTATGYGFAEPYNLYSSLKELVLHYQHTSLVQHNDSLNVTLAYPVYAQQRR
AuroraB, sequence (Q96GD4 whole entry): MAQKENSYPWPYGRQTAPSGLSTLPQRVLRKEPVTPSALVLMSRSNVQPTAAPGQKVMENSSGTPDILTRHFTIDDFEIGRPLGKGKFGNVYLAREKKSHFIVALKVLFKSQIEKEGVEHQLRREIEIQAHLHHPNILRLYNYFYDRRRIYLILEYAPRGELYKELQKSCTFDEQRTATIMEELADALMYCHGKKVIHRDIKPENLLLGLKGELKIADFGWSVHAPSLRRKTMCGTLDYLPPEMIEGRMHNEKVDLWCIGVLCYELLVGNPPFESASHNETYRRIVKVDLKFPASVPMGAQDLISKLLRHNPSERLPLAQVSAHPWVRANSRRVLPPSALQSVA

As usually defined, the IC50 is the point on the concentration scale where inhibition reaches its midpoint. Higher therefore signals weaker potency in that assay. By chromatographic logD is commonly meant lipophilicity estimated from chromatographic retention. Read a low chromatographic logD as a more hydrophilic compound. In the case of `CCn1cc(-c2ccncn2)c(-c2cccc(NS(=O)(=O)c3cc(F)ccc3F)c2)n1` [Compound 2], the results for the IC50 in data set [1], in data set [4] and in data set [6] were above 100 µM, above 31.6 µM and above 50.1 µM, respectively. Besides, in data set [2], the chromatographic logD came out at 4. Moreover, the AM Perm in data set [3] turned out to be 50.1 ×10⁻⁶ cm/s. The PFI in data set [5] worked out at 8.0. Further, in data set [7], the LE turned out to be 0.33. In addition, the LLE in data set [7] is on record as 4.2.
On to `Cc1ccc(S(C)(=O)=O)cc1Nc1nccc(-c2sc(CC(N)=O)nc2-c2ccccc2)n1` [Compound 3], for which the IC50 in data set [1] is 19.1 µM; in data set [4] it was above 31.6 µM; in data set [6], 0.0794 µM. The compound further registered a chromatographic logD in data set [2] of 3.3. The AM Perm in data set [3] was 36.7 ×10⁻⁶ cm/s. For the same compound, the PFI in data set [5] worked out at 7.3. The LE in data set [7] amounted to 0.33. In addition, the LLE in data set [7] came to 6.0.
Regarding `CC(C)(CN)c1cc(-c2ccc(Cl)c(O)c2)c(-c2ccncc2)o1` [Compound 4], the IC50 was 36.7 µM in data set [1], above 31.6 µM in data set [4] and above 50.1 µM in data set [6]. The chromatographic logD in data set [2] stood at 3.1. In data set [3], this compound displayed an AM Perm of 53.1 ×10⁻⁶ cm/s. In data set [5], the PFI turned out to be 6.1. Also, the LE in data set [7] was 0.5. In data set [7], this compound showed an LLE of 5.5.
`CCn1c(-c2nonc2N)nc2c(-c3ccccc3)ncc(CN(C)C3CCN(C)CC3)c21` [Compound 5]: the values for the IC50 in data set [1], in data set [4] and in data set [6] were 21.9 µM, 12.6 µM and above 50.1 µM, respectively. Besides, the chromatographic logD in data set [2] came out at 3.7. Also, in data set [3], the AM Perm was found to be 22.9 ×10⁻⁶ cm/s. The PFI in data set [5] amounted to 7.7. Further, the LE in data set [7] worked out at 0.3. Moreover, the LLE in data set [7] worked out at 4.3.
Consider `CNS(=O)(=O)c1cccc(Nc2ccnc(Nc3cccc(S(=O)(=O)NC)c3)n2)c1` [Compound 6], for which the IC50 in data set [1] stood at 0.188 µM; in data set [4], 0.0631 µM; in data set [6], 2.5 µM. The chromatographic logD in data set [2] was 3.4. Further, the AM Perm in data set [3] is 12.7 ×10⁻⁶ cm/s. Further, in data set [5], the PFI is reported as 6.4. In data set [7], this compound gave an LE of 0.33. In data set [7], this compound had an LLE of 4.5.
For `COc1ccc(-c2c(-c3cccc(C(=O)N4CCN(C)CC4)c3)oc3ncnc(N)c23)cc1` [Compound 7], the IC50 was 14.1 µM in data set [1], 3.2 µM in data set [4] and 39.8 µM in data set [6]. The chromatographic logD in data set [2] was 2.6. This compound displayed an AM Perm in data set [3] of 32.4 ×10⁻⁶ cm/s. Besides, the PFI in data set [5] came out at 6.6. This compound also displayed an LE in data set [7] of 0.33. The same compound registered an LLE in data set [7] of 5.4.
As for `COc1ccc(CCNC(=O)CSc2ncnc3[nH]ncc23)cc1OC` [Compound 8], the results for the IC50 in data set [1], in data set [4] and in data set [6] were 22.1 µM, above 31.6 µM and above 50.1 µM, respectively. The same compound showed a chromatographic logD in data set [2] of 2.3. In data set [3], this compound came in with an AM Perm of 7 ×10⁻⁶ cm/s. The compound further returned a PFI in data set [5] of 5.3. In data set [7], this compound displayed an LE of 0.37. This compound also gave an LLE in data set [7] of 5.5.
Consider `COc1cccc(Nc2nc(-c3ccncc3)cc(N3CCN(C)CC3)n2)c1` [Compound 9], for which the 50% inhibitory concentration (IC50) was 10 µM in data set [1], above 31.6 µM in data set [4] and above 50.1 µM in data set [6]. In data set [2], this compound had a chromatographic logD of 3.6. Also, the AM Perm in data set [3] turned out to be 59.9 ×10⁻⁶ cm/s. Also, the PFI in data set [5] is 6.6. Besides, the LE in data set [7] is listed as 0.37. Further, in data set [7], the LLE was 3.9.
As to `COc1cc(CS(C)(=O)=O)ccc1Nc1nc(Nc2cc(F)ccc2C(N)=O)c2cc[nH]c2n1` [Compound 10], the IC50 was 0.0248 µM in data set [1], above 31.6 µM in data set [4] and above 50.1 µM in data set [6]. Moreover, in data set [2], the chromatographic logD came out at 3.3. Further, the AM Perm in data set [3] worked out at 7.7 ×10⁻⁶ cm/s. This compound returned a PFI in data set [5] of 7.3. In data set [7], the LE was found to be 0.3. In addition, the LLE in data set [7] stood at 4.4.
For `O=C(N[C@@H](CO)c1ccccc1)c1ccc2cncc(-c3cn[nH]c3)c2n1` [Compound 11], the IC50 in data set [1] was 1 µM; in data set [4] it was 0.2 µM; in data set [6], 7.9 µM. Further, in data set [2], the chromatographic logD turned out to be 1.9. The compound further returned an AM Perm in data set [3] of 8.6 ×10⁻⁶ cm/s. The PFI in data set [5] is 5.9. The compound also yielded an LE in data set [7] of 0.36. The compound also showed an LLE in data set [7] of 4.9.
For the compound `NCCNCc1ccc(-c2cc3ccncc3cc2OC2CCNCC2)s1` [Compound 12], the IC50 in data set [1] stood at 0.851 µM; in data set [4], 10 µM. In data set [2], this compound had a chromatographic logD of -0.36. In data set [3], this compound displayed an AM Perm of 1.2 ×10⁻⁶ cm/s. Besides, the PFI in data set [5] was 2.6. Also, the LE in data set [7] stood at 0.33. Moreover, in data set [7], the LLE worked out at 4.7.
Regarding `CNCCOc1cnc(-c2ccoc2C)c(-c2ccc3cnccc3c2)c1` [Compound 13], the concentration for half-maximal inhibition (IC50) is 1.3 µM in data set [1], above 31.6 µM in data set [4] and above 50.1 µM in data set [6]. The chromatographic logD in data set [2] was found to be 2.1. This compound also came in with an AM Perm in data set [3] of 43.1 ×10⁻⁶ cm/s. Further, the PFI in data set [5] was 6.1. Besides, in data set [7], the LE came to 0.4. The LLE in data set [7] is given as 5.1.
Turning to `O=C(c1cccc(OCc2cccnc2)c1)N1CCc2sccc2C1CN1CCCCC1` (stereo not drawn) [Compound 14], the concentration for half-maximal inhibition (IC50) is 0.473 µM in data set [1], above 31.6 µM in data set [4] and above 50.1 µM in data set [6]. The compound further showed a chromatographic logD in data set [2] of 3.9. For the same compound, the AM Perm in data set [3] amounted to 55.1 ×10⁻⁶ cm/s. Besides, in data set [5], the PFI was found to be 6.9. Besides, the LE in data set [7] stood at 0.32. For the same compound, the LLE in data set [7] is listed as 2.9.
Consider `Nc1ccc2c(-c3ccncc3)c(-c3ccc(Cl)c(O)c3)[nH]c2n1` [Compound 15], for which the results for the IC50 in data set [1], in data set [4] and in data set [6] were 24 µM, 4 µM and 10 µM, respectively. In data set [2], this compound registered a chromatographic logD of 2.1. In addition, the AM Perm in data set [3] turned out to be 11 ×10⁻⁶ cm/s. In data set [5], this compound came in with a PFI of 6.1. Besides, in data set [7], the LE was 0.44. This compound also returned an LLE in data set [7] of 4.9.
